Results on 4 sequences are retold here after patent US8178506B2, “Oligomeric compounds and compositions for use in modulation of small non-coding RNAs” (Regulus Therapeutics Inc., priority 2003, dated 2012).

Series [1] relates to let-7i pri-miRNA. Nature of the series: let-7i pri-miRNA expression in HeLa cells. Particulars: 100 nM. The class given is cell-based, human. How it is done:
Using the transfection methods previously described, HeLa cells were treated with 100 nM of the oligomeric compound ISIS Number 327890 (SEQ ID NO: 308) targeting the let-7i mature miRNA. Total RNA was isolated and expression levels of the let-7i pri-miRNA were analyzed by real-time quantitative RT-PCR using a primer/probe set specific for the let-7i pri-miRNA molecule [forward primer-ISIS 341684 ([…]; herein incorporated as SEQ ID NO.: 777), reverse primer=ISIS 341685 ([…]; herein incorporated as SEQ ID NO.: 778), and probe=ISIS 341686 ([…]; herein incorporated as SEQ ID NO.: 779)].

For series [2], the system named is mir-24-2 pri-miRNA. In words: mir-24-2 pri-miRNA expression in HeLa cells. In kind it is cell-based, human. Particulars: 100 nM. How it is done:
The expression levels of mir-24-2, let-7i , and let-7d were assessed in HeLa or T-24 cells treated with various uniform 2′-MOE oligomeric compounds targeting mature miRNAs. For example, using the transfection methods previously described, HeLa cells were treated with 100 nM of the oligomeric compound ISIS Number 327945 (SEQ ID NO: 363) targeting the mir-24-2 mature miRNA. Total RNA was isolated and expression levels of the mir-24-2 pri-miRNA were analyzed by real-time quantitative RT-PCR using a primer/probe set specific for the mir-24-2 pri-miRNA molecule [forward primer=ISIS 359358 (CCCTGGGCTCTGCCT; herein incorporated as SEQ ID NO.: 908), reverse primer-ISIS 359359 ([…]; herein incorporated as SEQ ID NO.: 909), and probe=ISIS 359360 (CGTGCCTACTGAGC; herein incorporated as SEQ ID NO.: 910)].

The subject of series [3] is IL-6 mRNA. Nature of the series: IL-6 mRNA in LPS-activated primary murine macrophages. In kind it is cell-based, mouse. Particulars: IFN-gamma-stimulated and unstimulated cells, 75-600 nM. How it is done:
To investigate the role of miRNAs in the immune response, oligomeric compounds of the present invention targeting miRNAs were tested for their effects upon lipopolysaccharide (LPS)-activated primary murine macrophages. Macrophages participate in the immune response, for example, in the recognition and phagocytosis of microorganisms, including bacteria. Interferon-gamma (IFN-gamma) released by helper T cells is one type of signal required for macrophage activation, and LPS can serve as an additional stimulus. LPS is a component of the gram-negative bacterial cell wall and acts as an agonist for toll-like receptor 4 (TLR4), the primary LPS receptor expressed by macrophages. The proinflammatory cytokines interleukin-12 (IL-12) and interleukin-6 (IL-6) are induced by LPS treatment of macrophages, thus the expression of the mRNAs encoding these cytokines was used to evaluate the response of macrophages to LPS following treatment with oligomeric compounds targeting miRNAs.
Macrophages were isolated as follows. Female C57B1/6 mice (Charles River Laboratories, Wilmington, Mass.) were injected intraperitoneally with 1 ml 3% thioglycollate broth (Sigma-Aldrich, St. Louis, Mo.), and peritoneal macrophage cells were isolated by peritoneal lavage 4 days later. The cells were plated in 96-well plates at 40,000 cells/well for one hour in serum-free RPMI adjusted to contain 10 mM HEPES (Invitrogen Life Technologies, Carlsbad, Calif.), allowed to adhere, then non-adherent cells were washed away and the media was replaced with RPMI containing 10 mM HEPES, 10% FBS and penicillin/streptomycin (“complete” RPMI; Invitrogen Life Technologies, Carlsbad, Calif.).
Oligomeric compounds were introduced into the cells using the non-liposomal transfection reagent FuGENE 6 Transfection Reagent (Roche Diagnostics Corp., Indianapolis, Ind.). Oligomeric compound was mixed with FuGENE 6 in 1 mL of serum-free RPMI to achieve a concentration of 10 μL FuGENE per 1000 nM oligomeric compound. The oligomeric compound/FuGENE complex was allowed to form at room temperature for 20 minutes. This mixture was diluted to the desired concentration of oligomeric compound by the addition of the appropriate volume of complete RPMI. The final ratio of FuGENE 6 to oligomeric compound was 1 μL of FuGENE 6 per 100 nM oligomeric compound. A volume of 100 μL of oligomeric compound/FuGENE/RPMI was added to each well of the 96-well plate in which the macrophages were cultured. Each oligomeric compound treatment was repeated in triplicate.
Following oligomeric compound treatment, cells were stimultated with LPS. Cells were cultured in the presence of the transfection complex for approximately 24 to 28 hours at 37° C. and 5% CO2, after which the medium containing the transfection complex was removed from the cells, and complete RPMI containing 100 ng/mL LPS (Sigma-Aldrich Corp., St. Louis, Mo.) was added to the cells for a period of approximately 24 hours. Control samples included (1) cells receiving no oligomeric compound, stimulated with LPS and (2) cells receiving neither oligomeric compound nor LPS treatment.
In another embodiment, following oligomeric compound treatment, cells were first activated by IFN-gamma, to amplify the response to LPS. Cells were cultured in the presence of the transfection complex for approximately 24 hours at 37° C. and 5% CO2, at which point the medium containing the transfection complex was removed from the cells, and complete RPMI containing 100 ng/mL recombinant mouse IFN-gamma (R&D Systems, Minneapolis, Minn.) was added to the cells. After the 4 hour treatment with INF-gamma, cells were treated with 100 ng/mL LPS for approximately 24 hours. Control samples included (1) cells receiving no oligomeric compound, stimulated with LPS and (2) cells receiving neither oligomeric compound nor LPS treatment. […]

Series [4] deals with TLR4. In words: TLR4 mRNA in primary murine macrophages. In kind it is cell-based, mouse. Particulars: LPS-stimulated and LPS- and IFN-gamma-stimulated macrophages. The protocol:
Following the 24 hour treatment with LPS, the cells were lysed and RNA was isolated using the RNEASY 96™ kit, as described herein. mRNA expression was quantitated by real-time PCR, performed as described herein, using primer and probe sets to amplify and quantitate TLR4, IL-12 and IL-6 mRNA expression levels. Primers and probe for TLR4, designed using GenBank Accession number NM_021297.1, were: forward primer, 5′-[…]-3′ (SEQ ID NO: 2172), reverse primer, 5′-[…]-3′ (SEQ ID NO: 2173), probe 5′-FAM-[…]-TAMRA-3′ (SEQ ID NO: 2174). Primers and probe for IL-12, designed using GenBank Accession number M86671.1, were: forward primer, 5′-[…]-3′ (SEQ ID NO: 2175), reverse primer, 5′-[…]-3′ (SEQ ID NO: 2176), probe 5′-FAM-[…]-TAMRA-3′ (SEQ ID NO: 2177). Primers and probe for IL-6, designed using GenBank Accession number X54542.1, were: forward primer, 5′-[…]-3′ (SEQ ID NO: 2178), reverse primer, 5′-[…]-3′ (SEQ ID NO: 2179), probe 5′-FAM-[…]-TAMRA-3′ (SEQ ID NO: 2180). The amount of total RNA in each sample was determined using a Ribogreen Assay (Molecular Probes, Eugene, Oreg.), and expression levels of TLR4, IL-12 and IL-6 were normalized to total RNA.
TLR4 is the primary macrophage receptor for LPS. […]

Series [5] has as its system IL-12 mRNA. Nature of the series: IL-12 mRNA in LPS-activated primary murine macrophages. Particulars: LPS-stimulated primary murine macrophages. In kind it is cell-based, mouse.
Series [6] relates to let-7d pri-miRNA. In words: let-7d pri-miRNA expression in T-24 cells. In kind it is cell-based, human. Particulars: 100 nM. The protocol:
Using the transfection methods previously described, supra, T-24 cells were treated with 100 nM of the oligomeric compound ISIS Number 327926 (SEQ ID NO: 344) targeting the let-7d mature miRNA. Total RNA was isolated and expression levels of the let-7d pri-miRNA were analyzed by real-time quantitative RT-PCR using a primer/probe set specific for the let-7d pri-miRNA molecule (forward primer=ISIS 341678 (CCTAGGAAGAGGTAG TAGGTTGCA; herein incorporated as SEQ ID NO.: 771), reverse primer=ISIS 341679 ([…]; herein incorporated as SEQ ID NO.: 772), and probe=ISIS 341680 ([…]; herein incorporated as SEQ ID NO.: 773)).

In the oligonucleotide strings, read from the 5' end, every base follows the letter of its sugar. An asterisk marks phosphorothioate; unmarked linkages are phosphodiester. Other units and linkages are bracketed, terminal groups are in braces. A string of capitals states the bases alone. e = 2'-O-(2-methoxyethyl) (MOE); [5mC] = 5-methylcytosine; d = 2'-deoxy (DNA)

As to “AGCACAAACTACTACCTCA (chemistry not fully specified) [ISIS 327890, uniform 2′-MOE PS; targets let-7i]”, the “increase in expression levels of the let-7i pri-miRNA molecule” value in series [1] is recorded as “approximately 4 fold”. Consider “CTGTTCCTGCTGAACTGAGCCA (anti-miR; chemistry not fully specified) [ISIS 327945, uniform 2′-MOE PS; targets mir-24-2]”, for which, in series [2], the “increase in expression levels of the mir-24-2 pri-miRNA molecule” value is reported as “approximately 35 fold”.

On to “CCACATTGAGTTTCTTTAAG (e[5mC]*e[5mC]*eA*e[5mC]*eA*dT*dT*dG*dA*dG*dT*dT*dT*d[5mC]*dT*eT*eT*eA*eA*eG) [ISIS 229927, 5-10-5 2′-MOE gapmer PS targeting mouse TLR4 mRNA, positive control, reference compound]”, for which the IL-6 expression result in series [3] is “some reduction in IL-6 expression”. In addition, the “expression of TLR4” value in series [4] is on record as “reduced the expression of TLR4 in a dose-dependent manner”. The “IL-12 mRNA expression” value in series [5] is “dose-dependent reduction in IL-12”.

Take “ACTATGCAACCTACTACCTCT (chemistry not given here) [ISIS 327926, uniform 2′-MOE PS; targets let-7d]”: in series [6], the “increase in expression levels of the let-7d pri-miRNA molecule” value was “approximately 1.7 fold”.
